pIC50: −log10 of the molar value.
Key:
[1] = biological target: type I activin/nodal receptor ALK4; details: Tocris catalog description; cited from earlier work
[2] = biological target: type I nodal receptor ALK7; details: Tocris catalog description; cited from earlier work
[3] = test system: ALK-1, -2, -3, -6 and MAPK activity; details: Tocris catalog description; cited from earlier work
[4] = test system: co-cultures of the fibroblasts and organoids; assay: Imaging of organoid morphology and area in organoid-fibroblast co-cultures (Calcein AM stain); assay type: cell-based, human; details: 10 µM tofacitinib; Figure 5A; measured in accordance with Example 4
Protocol: (§1) In Examples 4-9, fibroblast cultures, organoid cultures, and co-cultures of the fibroblasts and organoids, were prepared according to Examples 1-2. OSM (1 ng/mL) and IL-1β (1 ng/mL) were added to the co-cultures according to Example 3 where "proinflammatory stimuli" or "proinflammatory stimulation" are specified in Examples 4-9. Co-cultures were then incubated on plates for 72 hours at 37°C and 5% CO2 prior to cytokine or caspase analysis, or for 96 hours at 37°C and 5% CO2 prior to imaging analysis.
Organoids in co-culture were first stained with Calcein AM. 48 hours after the organoids and fibroblasts were combined in co-culture, 50 µL DMSO was added to a vial of Calcein AM and mixed. 88 µL of the mixture was added to 4,312 µL of Ad-DF+++ media. 10 µL of the final Calcein AM mixture was added to co-cultures before 5-10 seconds of shaking in a Tecan D300. Plates were then incubated for 2 hours at 37°C and 5% CO2. Imaging were then performed to assess organoid morphology.

caspase 3/7 activity = assay: Caspase-Glo assay of apoptosis in organoid-fibroblast co-cultures challenged with TNF and IFNγ; assay type: cell-based, human; details: 10 µM tofacitinib; upon exposure to inflammatory cytokines; Figure 5B; measured in accordance with Example 6
Protocol: as §1
72 hours after organoids and fibroblasts were combined in co-culture, apoptosis in co-culture was triggered using inflammatory stimuli (in the form of damage-inducing cytokines), and measured 24 hours later, in co-cultures prepared using proinflammatory stimuli and in co-cultures not prepared using proinflammatory stimuli.
Stock solutions of TNF and IFNγ were diluted 1:1 with 0.6% Tween in PBS, and were added to the co-cultures at concentrations of 15 ng/mL and 15 ng/mL respectively. Plates were then incubated for 24 hours.
Apoptosis was assessed using a Caspase-Glo assay (e.g. Promega) to determine relative caspase 3/7 activity. Briefly, 95 µL of room-temperature caspase reagent was added to each plate. Plates were then shaken for 1 minute before incubation in the dark at room temperature for 30 minutes. […]

For `Cc1cccc(-c2nn(C(=S)Nc3ccccc3)cc2-c2ccnc3ccccc23)n1` [A83-01], the pIC50 [1] is given as 7.35, the pIC50 [2] is given as 8.12 and the “inhibition of ALK-1, -2, -3, -6 and MAPK activity” value [3] is given as “only weakly inhibits”.
In the case of `C[C@@H]1CCN(C(=O)CC#N)C[C@@H]1N(C)c1ncnc2[nH]ccc12` [tofacitinib], the change in morphology [4] was “small change” and the caspase activity (caspase 3/7 activity) was “greatly diminishes”.
